Measured values: PubChem BioAssay (NCI)
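Tested at 5 concentrations; 48 h exposure; 96-well plates; endpoints linearly interpolated, else capped at highest concentration. GI50 = concentration required for 50% inhibition of growth. At the TGI there is no net growth.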

Key:
Experiment in all cases: growth of human tumour cells (NCI), 48 h
SNB-19 CNS = tested on: SNB-19 CNS
SW-620 colon = tested on: SW-620 colon
SF-295 CNS = tested on: SF-295 CNS
MDA-MB-468 breast = tested on: MDA-MB-468 breast
KM12 colon = tested on: KM12 colon
A498 renal = tested on: A498 renal
EKVX NSCLC = tested on: EKVX NSCLC
OVCAR-5 ovarian = tested on: OVCAR-5 ovarian
NCI-H460 lung = tested on: NCI-H460 lung
OVCAR-3 ovarian = tested on: OVCAR-3 ovarian
SN12C renal = tested on: SN12C renal
MDA-MB-435 = tested on: MDA-MB-435
CAKI-1 renal = tested on: CAKI-1 renal
HCT-15 colon = tested on: HCT-15 colon
T-47D breast = tested on: T-47D breast
MCF7 breast = tested on: MCF7 breast
MALME-3M melanoma = tested on: MALME-3M melanoma
SK-OV-3 ovarian = tested on: SK-OV-3 ovarian
MOLT-4 leukemia = tested on: MOLT-4 leukemia
RXF 393 renal = tested on: RXF 393 renal
SR leukemia = tested on: SR leukemia
PC-3 prostate = tested on: PC-3 prostate
RPMI-8226 leukemia = tested on: RPMI-8226 leukemia
MDA-MB-231 breast = tested on: MDA-MB-231 breast
NCI-H522 lung = tested on: NCI-H522 lung
UO-31 renal = tested on: UO-31 renal
786-0 renal = tested on: 786-0 renal
K-562 leukemia = tested on: K-562 leukemia
NCI/ADR-RES ovarian = tested on: NCI/ADR-RES ovarian
TK-10 renal = tested on: TK-10 renal
HL-60(TB) leukemia = tested on: HL-60(TB) leukemia
SK-MEL-5 melanoma = tested on: SK-MEL-5 melanoma
SK-MEL-2 melanoma = tested on: SK-MEL-2 melanoma
A549 NSCLC = tested on: A549 NSCLC
HOP-92 NSCLC = tested on: HOP-92 NSCLC
LOX IMVI melanoma = tested on: LOX IMVI melanoma
BT-549 breast = tested on: BT-549 breast
SK-MEL-28 melanoma = tested on: SK-MEL-28 melanoma
HOP-62 NSCLC = tested on: HOP-62 NSCLC
CCRF-CEM leukemia = tested on: CCRF-CEM leukemia
NCI-H23 lung = tested on: NCI-H23 lung
HCT-116 colon = tested on: HCT-116 colon
SF-268 CNS = tested on: SF-268 CNS
ACHN renal = tested on: ACHN renal
SF-539 CNS = tested on: SF-539 CNS
UACC-62 melanoma = tested on: UACC-62 melanoma
IGROV1 ovarian = tested on: IGROV1 ovarian
OVCAR-8 ovarian = tested on: OVCAR-8 ovarian
U251 CNS = tested on: U251 CNS
DU-145 prostate = tested on: DU-145 prostate
NCI-H226 lung = tested on: NCI-H226 lung
SNB-75 CNS = tested on: SNB-75 CNS
COLO 205 colon = tested on: COLO 205 colon
UACC-257 melanoma = tested on: UACC-257 melanoma
HS 578T breast = tested on: HS 578T breast
HT29 colon = tested on: HT29 colon
OVCAR-4 ovarian = tested on: OVCAR-4 ovarian
M14 melanoma = tested on: M14 melanoma
HCC-2998 colon = tested on: HCC-2998 colon

`C#C[C@]1(O)CC[C@H]2[C@@H]3CC=C4c5sc(Nc6cc(C)cc(C)n6)nc5CC[C@]4(C)[C@H]3CC[C@@]21C` was tested, and the GI50 (SNB-19 CNS) was > 100 µM, the TGI (SNB-19 CNS) was > 100 µM and the GI50 (SW-620 colon) was > 100 µM. For the same compound, the TGI (SW-620 colon) was > 100 µM, the GI50 (SF-295 CNS) was > 100 µM and the TGI (SF-295 CNS) was > 100 µM. For the same compound, the GI50 (MDA-MB-468 breast) was > 100 µM, the TGI (MDA-MB-468 breast) was > 100 µM and the GI50 (KM12 colon) was > 100 µM. For the same compound, the TGI (KM12 colon) was > 100 µM, the GI50 (A498 renal) was > 100 µM and the TGI (A498 renal) was > 100 µM. For the same compound, the GI50 (EKVX NSCLC) was > 100 µM, the TGI (EKVX NSCLC) was > 100 µM and the GI50 (OVCAR-5 ovarian) was > 100 µM. The TGI (OVCAR-5 ovarian) was > 100 µM, the GI50 (NCI-H460 lung) was > 100 µM and the TGI (NCI-H460 lung) was > 100 µM. For the same compound, the GI50 (OVCAR-3 ovarian) was > 100 µM, the TGI (OVCAR-3 ovarian) was > 100 µM and the GI50 (SN12C renal) was > 100 µM. The TGI (SN12C renal) was > 100 µM, the GI50 (MDA-MB-435) was > 100 µM and the TGI (MDA-MB-435) was > 100 µM. For the same compound, the GI50 (CAKI-1 renal) was > 100 µM, the TGI (CAKI-1 renal) was > 100 µM and the GI50 (HCT-15 colon) was > 100 µM. For the same compound, the TGI (HCT-15 colon) was > 100 µM, the GI50 (T-47D breast) was > 100 µM and the TGI (T-47D breast) was > 100 µM. For the same compound, the GI50 (MCF7 breast) was > 100 µM, the TGI (MCF7 breast) was > 100 µM and the GI50 (MALME-3M melanoma) was > 100 µM. The TGI (MALME-3M melanoma) was > 100 µM, the GI50 (SK-OV-3 ovarian) was > 100 µM and the TGI (SK-OV-3 ovarian) was > 100 µM. For the same compound, the GI50 (MOLT-4 leukemia) was > 100 µM, the TGI (MOLT-4 leukemia) was > 100 µM and the GI50 (RXF 393 renal) was > 100 µM. For the same compound, the TGI (RXF 393 renal) was > 100 µM, the GI50 (SR leukemia) was > 100 µM and the TGI (SR leukemia) was > 100 µM. For the same compound, the GI50 (PC-3 prostate) was > 100 µM, the TGI (PC-3 prostate) was > 100 µM and the GI50 (RPMI-8226 leukemia) was > 100 µM. For the same compound, the TGI (RPMI-8226 leukemia) was > 100 µM, the GI50 (MDA-MB-231 breast) was > 100 µM and the TGI (MDA-MB-231 breast) was > 100 µM. The GI50 (NCI-H522 lung) was > 100 µM, the TGI (NCI-H522 lung) was > 100 µM and the GI50 (UO-31 renal) was > 100 µM. For the same compound, the TGI (UO-31 renal) was > 100 µM, the GI50 (786-0 renal) was > 100 µM and the TGI (786-0 renal) was > 100 µM. For the same compound, the GI50 (K-562 leukemia) was > 100 µM, the TGI (K-562 leukemia) was > 100 µM and the GI50 (NCI/ADR-RES ovarian) was > 100 µM. For the same compound, the TGI (NCI/ADR-RES ovarian) was > 100 µM, the GI50 (TK-10 renal) was > 100 µM and the TGI (TK-10 renal) was > 100 µM. The GI50 (HL-60(TB) leukemia) was > 100 µM, the TGI (HL-60(TB) leukemia) was > 100 µM and the GI50 (SK-MEL-5 melanoma) was > 100 µM. The TGI (SK-MEL-5 melanoma) was > 100 µM, the GI50 (SK-MEL-2 melanoma) was > 100 µM and the TGI (SK-MEL-2 melanoma) was > 100 µM. The GI50 (A549 NSCLC) was > 100 µM, the TGI (A549 NSCLC) was > 100 µM and the GI50 (HOP-92 NSCLC) was > 100 µM. For the same compound, the TGI (HOP-92 NSCLC) was > 100 µM, the GI50 (LOX IMVI melanoma) was > 100 µM and the TGI (LOX IMVI melanoma) was > 100 µM. The GI50 (BT-549 breast) was > 100 µM, the TGI (BT-549 breast) was > 100 µM and the GI50 (SK-MEL-28 melanoma) was > 100 µM. For the same compound, the TGI (SK-MEL-28 melanoma) was > 100 µM, the GI50 (HOP-62 NSCLC) was > 100 µM and the TGI (HOP-62 NSCLC) was > 100 µM. For the same compound, the GI50 (CCRF-CEM leukemia) was > 100 µM, the TGI (CCRF-CEM leukemia) was > 100 µM and the GI50 (NCI-H23 lung) was > 100 µM. The TGI (NCI-H23 lung) was > 100 µM, the GI50 (HCT-116 colon) was > 100 µM and the TGI (HCT-116 colon) was > 100 µM. For the same compound, the GI50 (SF-268 CNS) was > 100 µM, the TGI (SF-268 CNS) was > 100 µM and the GI50 (ACHN renal) was > 100 µM. For the same compound, the TGI (ACHN renal) was > 100 µM, the GI50 (SF-539 CNS) was > 100 µM and the TGI (SF-539 CNS) was > 100 µM. The GI50 (UACC-62 melanoma) was > 100 µM, the TGI (UACC-62 melanoma) was > 100 µM and the GI50 (IGROV1 ovarian) was > 100 µM. The TGI (IGROV1 ovarian) was > 100 µM, the GI50 (OVCAR-8 ovarian) was > 100 µM and the TGI (OVCAR-8 ovarian) was > 100 µM. For the same compound, the GI50 (U251 CNS) was > 100 µM, the TGI (U251 CNS) was > 100 µM and the GI50 (DU-145 prostate) was > 100 µM. The TGI (DU-145 prostate) was > 100 µM, the GI50 (NCI-H226 lung) was > 100 µM and the TGI (NCI-H226 lung) was > 100 µM. For the same compound, the GI50 (SNB-75 CNS) was > 100 µM, the TGI (SNB-75 CNS) was > 100 µM and the GI50 (COLO 205 colon) was > 100 µM. For the same compound, the TGI (COLO 205 colon) was > 100 µM, the GI50 (UACC-257 melanoma) was > 100 µM and the TGI (UACC-257 melanoma) was > 100 µM. The GI50 (HS 578T breast) was > 100 µM, the TGI (HS 578T breast) was > 100 µM and the GI50 (HT29 colon) was > 100 µM. For the same compound, the TGI (HT29 colon) was > 100 µM, the GI50 (OVCAR-4 ovarian) was > 100 µM and the TGI (OVCAR-4 ovarian) was > 100 µM. For the same compound, the GI50 (M14 melanoma) was > 100 µM, the TGI (M14 melanoma) was > 100 µM and the GI50 (HCC-2998 colon) was > 100 µM. The TGI (HCC-2998 colon) was > 100 µM.
